Experimental data published in paper PMC9609070 (ACS Omega, 2022).
Where two headings read alike, the source gives them in different places.

Key:
[1] = Preferential solvation analysis by inverse Kirkwood–Buff integrals; type: physicochemical; details: NMP+water, T=298.15 K
[2] = Solid-phase analyses; type: physicochemical; details: after saturation in neat water, x1=0.50 mixture and neat NMP
[3] = Hildebrand solubility parameter of meloxicam; type: physicochemical; details: expected from the solubility maximum in neat NMP; T=298.15 K
[4] = calculated by Fedors' groups contribution method; cited from earlier work
[5] = cited from earlier work
[6] = neat water, x1=0.000, cited from earlier work
[7] = neat water, x1=0.000, cited from earlier work; remark: listed apart in the source
[8] = cited from earlier work; remark: listed apart in the source
[9] = Apparent thermodynamic functions of mixing; type: physicochemical; details: Thm=303.0 K

With `Cc1cnc(NC(=O)C2=C(O)c3ccccc3S(=O)(=O)N2C)s1` [Meloxicam, 4-hydroxy-2-methyl-N-(5-methyl-2-thiazolyl)-2H-1,2-benzothiazine-3-carboxamide-1,1-dioxide] the “G1,3 (Kirkwood–Buff integral)” value ([1]; x1=0.85) was “–187.8 cm^3·mol^–1”, the “G2,3 (Kirkwood–Buff integral)” value ([1]; x1=0.85) was “–394.4 cm^3·mol^–1” and the “100 δx1,3 (preferential solvation parameter by NMP)” value ([1]; x1=0.90) was 1.10. For the same molecule, the “D (derivative of Gibbs energy of transfer vs x1)” value ([1]; x1=0.90) was “–7.54 kJ·mol^–1”, the “G1,3 (Kirkwood–Buff integral)” value ([1]; x1=0.90) was “–186.0 cm^3·mol^–1” and the “G2,3 (Kirkwood–Buff integral)” value ([1]; x1=0.90) was “–417.8 cm^3·mol^–1”. The “100 δx1,3 (preferential solvation parameter by NMP)” value ([1]; x1=0.95) was 0.69, the “D (derivative of Gibbs energy of transfer vs x1)” value ([1]; x1=0.95) was “–8.41 kJ·mol^–1” and the “G1,3 (Kirkwood–Buff integral)” value ([1]; x1=0.95) was “–184.2 cm^3·mol^–1”. For the same molecule, the “G2,3 (Kirkwood–Buff integral)” value ([1]; x1=0.95) was “–467.3 cm^3·mol^–1”, the “100 δx1,3 (preferential solvation parameter by NMP)” value ([1]; x1=1.00) was 0.00 and the “D (derivative of Gibbs energy of transfer vs x1)” value ([1]; x1=1.00) was “–9.81 kJ·mol^–1”. For the same molecule, the “G1,3 (Kirkwood–Buff integral)” value ([1]; x1=1.00) was “–181.8 cm^3·mol^–1”, the “G2,3 (Kirkwood–Buff integral)” value ([1]; x1=1.00) was “–563.4 cm^3·mol^–1” and the “Crystal form after saturation (XRD, FTIR)” value [2] was “did not suffer crystal polymorphic transitions or solvate formation”. The “Hildebrand solubility parameter δ3, solubility-based” value [3] was “lower than 23.6 MPa^1/2”, the “Hildebrand solubility parameter δ3” value [4] was 32.1 MPa^1/2 and the Solubility-increasing effect ([5]; Carbitol as cosolvent) was 1144 times. For the same molecule, the Solubility-increasing effect ([5]; N,N-dimethylformamide (DMF) as cosolvent) was 11,233 times, the Solubility-increasing effect ([5]; N-methylformamide (NMF) as cosolvent) was 1399 times and the Solubility-increasing effect ([5]; dimethyl sulfoxide (DMSO) as cosolvent) was 6956 times. For the same molecule, the “Experimental molar solubility (C)” value ([6]; T=293.15 K) was 6.027 × 10^–5 mol·dm^–3, the “Experimental mole fraction solubility (x3)” value ([6]; T=293.15 K) was 1.088 × 10^–6 mole fraction and the “Experimental molar solubility (C)” value ([6]; T=298.15 K) was 6.290 × 10^–5 mol·dm^–3. The “Experimental mole fraction solubility (x3)” value ([6]; T=298.15 K) was 1.137 × 10^–6 mole fraction, the “Experimental molar solubility (C)” value ([6]; T=303.15 K) was 6.557 × 10^–5 mol·dm^–3 and the “Experimental mole fraction solubility (x3)” value ([6]; T=303.15 K) was 1.187 × 10^–6 mole fraction. The “Experimental molar solubility (C)” value ([6]; T=308.15 K) was 6.962 × 10^–5 mol·dm^–3, the “Experimental mole fraction solubility (x3)” value ([6]; T=308.15 K) was 1.262 × 10^–6 mole fraction and the “Experimental mole fraction solubility (x3)” value ([6]; T=313.15 K) was 1.329 × 10^–6 mole fraction. The “Activity coefficient (γ3)” value ([7]; T=293.15 K) was 2396, the “Activity coefficient (γ3)” value ([7]; T=298.15 K) was 2708 and the “Activity coefficient (γ3)” value ([7]; T=303.15 K) was 3055. The “Activity coefficient (γ3)” value ([7]; T=308.15 K) was 3376, the “Activity coefficient (γ3)” value ([7]; T=313.15 K) was 3755 and the “Ideal mole fraction solubility (x3^id)” value ([8]; T=293.15 K) was 2.607 × 10^–3 mole fraction. The “Ideal mole fraction solubility (x3^id)” value ([8]; T=298.15 K) was 3.079 × 10^–3 mole fraction, the “Ideal mole fraction solubility (x3^id)” value ([8]; T=303.15 K) was 3.627 × 10^–3 mole fraction and the “Ideal mole fraction solubility (x3^id)” value ([8]; T=308.15 K) was 4.260 × 10^–3 mole fraction. The “Ideal mole fraction solubility (x3^id)” value ([8]; T=313.15 K) was 4.991 × 10^–3 mole fraction, the “TΔsolnS°” value ([8]; ideal, Thm=303.0 K) was 10.61 kJ·mol^–1 and the “ΔsolnG° (apparent Gibbs energy of dissolution)” value ([8]; ideal, Thm=303.0 K) was 14.16 kJ·mol^–1. The “ΔsolnH° (apparent enthalpy of dissolution)” value ([8]; ideal, Thm=303.0 K) was 24.78 kJ·mol^–1, the “ΔsolnS° (apparent entropy of dissolution)” value ([8]; ideal, Thm=303.0 K) was 35.03 J·mol^–1·K^–1 and the “ΔmixG° (apparent Gibbs energy of mixing)” value ([9]; NMP+water, x1=0.100) was 13.24 kJ·mol^–1. For the same molecule, the “ΔmixH° (apparent enthalpy of mixing)” value ([9]; NMP+water, x1=0.100) was 3.14 kJ·mol^–1, the “ΔmixS° (apparent entropy of mixing)” value ([9]; NMP+water, x1=0.100) was “–33.32 J·mol^–1·K^–1” and the “ΔmixG° (apparent Gibbs energy of mixing)” value ([9]; NMP+water, x1=0.200) was 8.18 kJ·mol^–1. For the same molecule, the “ΔmixH° (apparent enthalpy of mixing)” value ([9]; NMP+water, x1=0.200) was 0.11 kJ·mol^–1, the “ΔmixS° (apparent entropy of mixing)” value ([9]; NMP+water, x1=0.200) was “–26.62 J·mol^–1·K^–1” and the “ΔmixG° (apparent Gibbs energy of mixing)” value ([9]; NMP+water, x1=0.300) was 4.22 kJ·mol^–1. The “ΔmixH° (apparent enthalpy of mixing)” value ([9]; NMP+water, x1=0.300) was “–3.31 kJ·mol^–1”, the “ΔmixS° (apparent entropy of mixing)” value ([9]; NMP+water, x1=0.300) was “–24.85 J·mol^–1·K^–1” and the “ΔmixG° (apparent Gibbs energy of mixing)” value ([9]; NMP+water, x1=0.400) was 1.15 kJ·mol^–1. For the same molecule, the “ΔmixH° (apparent enthalpy of mixing)” value ([9]; NMP+water, x1=0.400) was “–7.38 kJ·mol^–1”, the “ΔmixS° (apparent entropy of mixing)” value ([9]; NMP+water, x1=0.400) was “–28.14 J·mol^–1·K^–1” and the “ΔmixG° (apparent Gibbs energy of mixing)” value ([9]; NMP+water, x1=0.500) was “–1.16 kJ·mol^–1”. For the same molecule, the “ΔmixH° (apparent enthalpy of mixing)” value ([9]; NMP+water, x1=0.500) was “–10.00 kJ·mol^–1”, the “ΔmixS° (apparent entropy of mixing)” value ([9]; NMP+water, x1=0.500) was “–29.18 J·mol^–1·K^–1” and the “ΔmixG° (apparent Gibbs energy of mixing)” value ([9]; NMP+water, x1=0.600) was “–2.74 kJ·mol^–1”. For the same molecule, the “ΔmixH° (apparent enthalpy of mixing)” value ([9]; NMP+water, x1=0.600) was “–6.91 kJ·mol^–1”, the “ΔmixS° (apparent entropy of mixing)” value ([9]; NMP+water, x1=0.600) was “–13.74 J·mol^–1·K^–1” and the “ΔmixG° (apparent Gibbs energy of mixing)” value ([9]; NMP+water, x1=0.700) was “–3.72 kJ·mol^–1”. For the same molecule, the “ΔmixH° (apparent enthalpy of mixing)” value ([9]; NMP+water, x1=0.700) was 1.42 kJ·mol^–1, the “ΔmixS° (apparent entropy of mixing)” value ([9]; NMP+water, x1=0.700) was 16.95 J·mol^–1·K^–1 and the “ΔmixG° (apparent Gibbs energy of mixing)” value ([9]; NMP+water, x1=0.800) was “–4.65 kJ·mol^–1”. The “ΔmixH° (apparent enthalpy of mixing)” value ([9]; NMP+water, x1=0.800) was “–0.68 kJ·mol^–1”, the “ΔmixS° (apparent entropy of mixing)” value ([9]; NMP+water, x1=0.800) was 13.10 J·mol^–1·K^–1 and the “ΔmixG° (apparent Gibbs energy of mixing)” value ([9]; NMP+water, x1=0.900) was “–5.56 kJ·mol^–1”. The “ΔmixH° (apparent enthalpy of mixing)” value ([9]; NMP+water, x1=0.900) was “–5.29 kJ·mol^–1”, the “ΔmixS° (apparent entropy of mixing)” value ([9]; NMP+water, x1=0.900) was 0.90 J·mol^–1·K^–1 and the “ΔmixG° (apparent Gibbs energy of mixing)” value ([9]; neat NMP, x1=1.000) was “–6.17 kJ·mol^–1”. The “ΔmixH° (apparent enthalpy of mixing)” value ([9]; neat NMP, x1=1.000) was “–3.73 kJ·mol^–1”, the “ΔmixS° (apparent entropy of mixing)” value ([9]; neat NMP, x1=1.000) was 8.07 J·mol^–1·K^–1 and the “ΔmixG° (apparent Gibbs energy of mixing)” value ([9]; neat water, x1=0.000) was 20.19 kJ·mol^–1. The “ΔmixH° (apparent enthalpy of mixing)” value ([9]; neat water, x1=0.000) was “–17.09 kJ·mol^–1” and the “ΔmixS° (apparent entropy of mixing)” value ([9]; neat water, x1=0.000) was “–123.02 J·mol^–1·K^–1”.
